The text below walks through data of ChEMBL document CHEMBL6153048, “Synthesis and pharmacological evaluation of natural product diphyllin derivatives against head and neck squamous cell carcinoma” (Eur J Med Chem, 2025).

The test system of series [1] is CAL-27. Nature of the series: Antiproliferative activity against human CAL-27 cells assessed as inhibition rate at 0.1 uM incubated for 72 hrs by MTT assay relative to control. The format is functional. (In general: Formazan colour is commonly taken as a measure of viable cells.)
Series [2] is described as follows: Antiproliferative activity against human HN-6 cells assessed as inhibition rate at 0.1 uM incubated for 72 hrs by MTT assay relative to control. The format is functional.
The nature of series [3]: Antiproliferative activity against human WSU HN-30 cells assessed as inhibition rate at 0.1 uM incubated for 72 hrs by MTT assay relative to control. Type of series: functional. The following applies: WSU-HN30.
Series [4] deals with SCC-9. Nature of the series: Antiproliferative activity against human SCC-9 cells assessed as inhibition rate at 0.1 uM incubated for 72 hrs by MTT assay relative to control. The format is functional.
The subject of series [5] is SCC-25. Nature of the series: Antiproliferative activity against human SCC-25 cells assessed as inhibition rate at 0.1 uM incubated for 72 hrs by MTT assay relative to control. Type of series: functional.
Series [6] in a line: Antiproliferative activity against human L02 cells assessed as inhibition rate at 0.1 uM incubated for 72 hrs by MTT assay relative to control. Type of series: toxicity, cell-based.
The subject of series [7] is CAL-27. Nature of the series: Cytotoxicity against human CAL-27 cells incubated for 72 hrs by MTT assay. The format is functional, cell-based. The following applies: CAL-27, 72 h.
Series [8] is described as follows: Cytotoxicity against human HN-6 cells incubated for 72 hrs by MTT assay. The format is functional, cell-based. Conditions: HN-6, 72 h.
Series [9] in a line: Cytotoxicity against human […] incubated for 72 hrs by MTT assay. The format is functional, cell-based. The following applies: WSU-HN30, 72 h.
Series [10] relates to SCC-9. Nature of the series: Cytotoxicity against human SCC-9 cells incubated for 72 hrs by MTT assay. The format is functional, cell-based. The following applies: SCC-9, 72 h.
Series [11] concerns SCC-25. Nature of the series: Cytotoxicity against human SCC-25 cells incubated for 72 hrs by MTT assay. Type of series: functional, cell-based. Conditions: SCC-25, 72 h.
Series [12] can be described thus: Cytotoxicity against human L02 cells incubated for 72 hrs by MTT assay. The format is toxicity, cell-based.
The subject of series [13] is CAL-27. Nature of the series: Antiproliferative activity against human CAL-27 cells assessed as inhibition of cell communities at 10 uM treated for 11 days by plate clone formation assay. Type of series: functional, cell-based. Conditions: time 11.0 day.

Calls of active or inactive are those of the source. The rule behind the calls is not given here.

In general, inhibition refers to the change of the read-out against control, counted positive when it falls. Usually IC50 stands for the concentration needed to halve the response being measured. A low value points to inhibition by little substance. As to `COc1cc2c(OCCOCCN)c3c(c(-c4ccc5c(c4)OCO5)c2cc1OC)C(=O)OC3`, the inhibition at 0.1 µM was 45.6% with CAL-27 [1]; 50.8% in [2]; 34.2% in series [3]; 34.9% in the series with SCC-9 [4]; 28.9% with SCC-25 [5]. For the same molecule, in [6], the inhibition at 72 h, 0.1 µM was 18.3%. Also, the IC50 was 101 nM with CAL-27 [7]; 185 nM in series [8]; 144 nM in series [9]; 135 nM with SCC-9 [10]; 85 nM in the series with SCC-25 [11]. In addition, in series [12], the half-maximal inhibitory concentration (IC50) at 72 h was above 10000 nM.
`COc1cc2c(O[C@@H]3O[C@@H]4CO[C@@H](C5CCCCC5)O[C@H]4[C@H](O)[C@H]3O)c3c(c(-c4ccc5c(c4)OCO5)c2cc1OC)C(=O)OC3`: the inhibition at 0.1 µM in the series with CAL-27 [1] was 50.5%; in series [2], 62.1%; in series [3] it was 40.6%; with SCC-9 [4] it was 46.6%; with SCC-25 [5], 47.4%. Moreover, the inhibition at 72 h, 0.1 µM in [6] turned out to be 11.5%. The IC50 in the series with CAL-27 [7] is 11.6 nM; in series [8], 14.8 nM; in series [9], 35.2 nM; with SCC-9 [10], 29.7 nM; in the series on SCC-25 [11] it was 15.2 nM. In addition, the midpoint of inhibition in series [12], the IC50 at 72 h, lay at 4670 nM.
For `COc1cc2c(O[C@@H]3O[C@@H]4CO[C@@H](c5cccs5)O[C@H]4[C@H](O)[C@H]3O)c3c(c(-c4ccc5c(c4)OCO5)c2cc1OC)C(=O)OC3`, the inhibition at 0.1 µM in the series on CAL-27 [1] is 50.7%; in series [2], 56.3%; in [3] it was 41.3%; with SCC-9 [4] it was 54%; with SCC-25 [5], 52.5%. For the same molecule, the inhibition at 72 h, 0.1 µM in [6] was determined as 7.19%. The half-maximal inhibitory concentration (IC50) in the series on CAL-27 [7] was 18.1 nM; in [8], 68.1 nM; in series [9], 120 nM; with SCC-9 [10], 31.5 nM; with SCC-25 [11] it was 9.34 nM. The molecule also gave a concentration for half-maximal inhibition (IC50) at 72 h in series [12] above 10000 nM.
For the molecule `COc1cc2c(O[C@@H]3O[C@@H]4CO[C@@H](c5ccco5)O[C@H]4[C@H](O)[C@H]3O)c3c(c(-c4ccc5c(c4)OCO5)c2cc1OC)C(=O)OC3`, the inhibition at 0.1 µM was 50.9% with CAL-27 [1]; 58.7% in [2]; 45.7% in series [3]; 52.9% in the series with SCC-9 [4]; 54.6% with SCC-25 [5]. Also, the inhibition at 72 h, 0.1 µM in series [6] was 5.23%. For the same molecule, the IC50 is 5.47 nM in the series on CAL-27 [7]; 8.58 nM in [8]; 243 nM in series [9]; 4.97 nM with SCC-9 [10]; 4.31 nM with SCC-25 [11]. The molecule also showed a concentration for half-maximal inhibition (IC50) at 72 h in [12] above 10000 nM. In addition, the result with CAL-27 [13] was Active.
On to `COc1cc2c(O[C@@H]3O[C@@H]4CO[C@@H](c5ccsc5)O[C@H]4[C@H](OC(C)=O)[C@H]3OC(C)=O)c3c(c(-c4ccc5c(c4)OCO5)c2cc1OC)C(=O)OC3`, for which the inhibition at 0.1 µM amounted to 48.2% in the series on CAL-27 [1]; 61.1% in [2]; 49.4% in series [3]; 45.8% in the series on SCC-9 [4]; 47.4% with SCC-25 [5]. Further, the inhibition at 72 h, 0.1 µM in series [6] turned out to be 9.07%. The IC50 in the series with CAL-27 [7] turned out to be 20.1 nM; in [8] it was 11.6 nM; in series [9], 92.6 nM; in the series on SCC-9 [10], 16.1 nM; in the series with SCC-25 [11] it was 43.3 nM. This molecule showed an IC50 at 72 h in series [12] above 10000 nM.
In the case of `COc1cc2c(OCCOCCOCCN)c3c(c(-c4ccc5c(c4)OCO5)c2cc1OC)C(=O)OC3`, the inhibition at 0.1 µM in the series on CAL-27 [1] was determined as 67.2%; in [2], 29.5%; in series [3], 25.2%; in the series on SCC-9 [4], 31.5%; with SCC-25 [5] it was 51.1%. The inhibition at 72 h, 0.1 µM in series [6] worked out at 18.2%. Further, the IC50 worked out at 40.6 nM in the series on CAL-27 [7]; 94.6 nM in [8]; 123 nM in series [9]; 130 nM in the series with SCC-9 [10]; 92.6 nM with SCC-25 [11]. This molecule showed a half-inhibitory concentration (IC50) at 72 h in [12] of 7870 nM.
On to `COc1cc2c(O[C@@H]3O[C@@H]4CO[C@@H](c5csc(Br)c5)O[C@H]4[C@H](O)[C@H]3O)c3c(c(-c4ccc5c(c4)OCO5)c2cc1OC)C(=O)OC3`, for which the inhibition at 0.1 µM in the series on CAL-27 [1] worked out at 78.3%; in series [2], 57.6%; in [3], 49.9%; in the series on SCC-9 [4], 72.3%; in the series with SCC-25 [5], 58.4%. The inhibition at 72 h, 0.1 µM in series [6] was found to be 20.8%. Besides, the IC50 is 14.5 nM in the series on CAL-27 [7]; 6.07 nM in [8]; 7.33 nM in series [9]; 16.4 nM with SCC-9 [10]; 86.4 nM with SCC-25 [11]. The same molecule had an IC50 at 72 h in series [12] of 3680 nM.
Take `COc1cc2c(NC(=O)C(F)(F)[C@]3(O)O[C@@H]4CO[C@@H](c5ccsc5)O[C@H]4[C@H](O)[C@H]3O)c3c(c(-c4ccc5c(c4)OCO5)c2cc1OC)C(=O)OC3`: the inhibition at 0.1 µM in the series with CAL-27 [1] came out at 25.8%; in series [2] it was 14.5%; in series [3], 14%; in the series on SCC-9 [4], 16.6%; with SCC-25 [5], 23.6%. In [6], the inhibition at 72 h, 0.1 µM came to 3.32%.
`COc1cc([C@@H]2c3cc4c(cc3[C@@H](O[C@@H]3O[C@@H]5CO[C@@H](C)O[C@H]5[C@H](O)[C@H]3O)[C@H]3COC(=O)[C@H]23)OCO4)cc(OC)c1O` [ETOPOSIDE]: the 50% inhibitory concentration (IC50) with CAL-27 [7] is 7490 nM; in series [8], above 10000 nM; in series [9] it was 1700 nM; in the series with SCC-9 [10], 3700 nM; in the series with SCC-25 [11] it was 693 nM. In series [12], this molecule yielded a half-maximal inhibitory concentration (IC50) at 72 h above 10000 nM.
